Measured values taken from patent US7932270B2 (Cytokinetics, Inc., priority 2006, dated 2011).

What follows are compounds tested against T1, chicken gizzard smooth muscle myosin subfragment-1 chemically crosslinked to cardiac or skeletal actin (Gallus gallus, UniProt P10587) (assay: Smooth muscle myosin ATPase dose response assay (pyruvate kinase/horseradish peroxidase/pyruvate oxidase-coupled, amplex red fluorescence)). Conditions: read-out: IC50 Arithmetic Mean.
T1 construct: chicken gizzard smooth muscle myosin subfragment-1; from tissue; host or cells: chicken gizzard
T1 sequence (P02607 2-151): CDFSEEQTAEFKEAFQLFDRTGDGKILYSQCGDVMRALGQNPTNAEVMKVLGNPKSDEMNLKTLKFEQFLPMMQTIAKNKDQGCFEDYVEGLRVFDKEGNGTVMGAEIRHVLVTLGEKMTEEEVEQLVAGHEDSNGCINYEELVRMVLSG
T1 sequence (P10587 84-789): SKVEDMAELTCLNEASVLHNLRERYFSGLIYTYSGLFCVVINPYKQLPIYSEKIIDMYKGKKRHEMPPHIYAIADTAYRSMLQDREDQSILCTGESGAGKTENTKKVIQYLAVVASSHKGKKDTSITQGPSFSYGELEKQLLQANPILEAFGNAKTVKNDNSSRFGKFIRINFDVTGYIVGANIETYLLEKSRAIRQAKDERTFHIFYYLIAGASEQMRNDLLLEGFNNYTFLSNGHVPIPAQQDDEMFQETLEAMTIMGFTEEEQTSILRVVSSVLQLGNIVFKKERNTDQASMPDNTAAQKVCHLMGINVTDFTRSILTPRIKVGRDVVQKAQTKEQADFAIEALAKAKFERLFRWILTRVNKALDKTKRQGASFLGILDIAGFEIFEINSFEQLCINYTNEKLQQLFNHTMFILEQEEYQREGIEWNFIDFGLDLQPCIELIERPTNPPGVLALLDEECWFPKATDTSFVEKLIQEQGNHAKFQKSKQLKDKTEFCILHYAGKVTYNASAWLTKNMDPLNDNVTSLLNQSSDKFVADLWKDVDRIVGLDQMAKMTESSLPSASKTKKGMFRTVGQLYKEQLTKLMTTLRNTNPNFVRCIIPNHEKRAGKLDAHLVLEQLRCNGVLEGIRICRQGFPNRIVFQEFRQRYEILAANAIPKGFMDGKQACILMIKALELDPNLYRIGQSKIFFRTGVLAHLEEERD
Format: biochemical
Method in brief: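 Lead-optimization format: ATPase coupled via pyruvate kinase, pyruvate oxidase and peroxidase, pH 7.00 at 22° C, with 0.15 mM ATP, 100 mM KCl, 2 mM MgCl2, 2 mM phosphate and 0.1 mM amplex red (final). Crosslinked S1 titrated empirically for set hydrolysis rate; fluorescence (ex 480/em 615 nm) dose curves fit 4-parameter for IC50.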
In the case of `O=C(NCc1cccnc1)c1ccc(-c2ccccc2)nc1NCCC1CCCCC1` [{2-[(2-cyclohexylethyl)amino]-6-phenyl(3-pyridyl)}-N-(3-pyridylmethyl)carboxamide], the IC50 is reported as 1.85 µM.
`O=C(NCc1cccnc1)c1ccc(-c2ccccc2)nc1NCC(O)c1ccccc1` (stereo not shown) [{2-[(2-hydroxy-2-phenylethyl)amino]-6-phenyl(3-pyridyl)}-N-(3-pyridylmethyl)carboxamide] gave an IC50 of 1.94 µM.
Compound `O=C(NCc1cccnc1)c1ccc(-c2ccccc2)nc1NCCc1c[nH]cn1` [{2-[(2-imidazol-4-ylethyl)amino]-6-phenyl(3-pyridyl)}-N-(3-pyridylmethyl)carboxamide] has an IC50 of 9.77 µM.
With `O=C(NCc1cccnc1)c1ccc(-c2ccccc2)nc1NCCN1CCOCC1` [{2-[(2-morpholin-4-ylethyl)amino]-6-phenyl(3-pyridyl)}-N-(3-pyridylmethyl)carboxamide] the IC50 was 37.3 µM.
Compound `O=C(NCc1cccnc1)c1ccc(-c2ccccc2)nc1NCCCn1ccnc1` [{2-[(3-imidazolylpropyl)amino]-6-phenyl(3-pyridyl)}-N-(3-pyridylmethyl)carboxamide] has an IC50 of 30.3 µM.
With `C[C@@H](CNc1nc(-c2ccccc2)ccc1C(=O)NCc1cccnc1)c1ccccc1` [{2-[((2R)-2-phenylpropyl)amino]-6-phenyl(3-pyridyl)}-N-(3-pyridylmethyl)carboxamide] the IC50 was 17.3 µM.
Work on `O=C(NCc1cccnc1)c1ccc(-c2ccccc2)nc1NCC1CCCO1` (stereo not shown) [{2-[(oxolan-2-ylmethyl)amino]-6-phenyl(3-pyridyl)}-N-(3-pyridylmethyl)carboxamide] yielded an IC50 of 4.83 µM.
`O=C(NCc1cccnc1)c1cc(F)c(-c2cn[nH]c2)nc1NCCn1cccn1` [{5-fluoro-6-pyrazol-4-yl-2-[(2-pyrazolylethyl)amino](3-pyridyl)}-N-(3-pyridylmethyl)carboxamide] was tested, and the IC50 was 0.211 µM.
With `Cn1cc(-c2ccc(C(=O)NCc3cccnc3)c(NCCc3ccccn3)n2)cn1` [{6-(1-methylpyrazol-4-yl)-2-[(2-(2-pyridyl)ethyl)amino](3-pyridyl)}-N-(3-pyridylmethyl)carboxamide] the IC50 was 2.53 µM.
In the case of `Cc1cccc(-c2ccc(C(=O)NCc3cccnc3)c(NCCc3ccccn3)n2)c1C` [{6-(2,3-dimethylphenyl)-2-[(2-(2-pyridyl)ethyl)amino](3-pyridyl)}-N-(3-pyridylmethyl)carboxamide], the IC50 is reported as 6.94 µM.
In the case of `Cc1ccc(-c2ccc(C(=O)NCc3cccnc3)c(NCCc3ccccn3)n2)c(C)c1` [{6-(2,4-dimethylphenyl)-2-[(2-(2-pyridyl)ethyl)amino](3-pyridyl)}-N-(3-pyridylmethyl)carboxamide], the IC50 is reported as 3.96 µM.
Compound `Cc1ccc(C)c(-c2ccc(C(=O)NCc3cccnc3)c(NCCc3ccccn3)n2)c1` [{6-(2,5-dimethylphenyl)-2-[(2-(2-pyridyl)ethyl)amino](3-pyridyl)}-N-(3-pyridylmethyl)carboxamide] has an IC50 of 13.6 µM.
`O=C(NCc1cccnc1)c1ccc(-c2ccccc2Cl)nc1NCCc1ccccn1` [{6-(2-chlorophenyl)-2-[(2-(2-pyridyl)ethyl)amino](3-pyridyl)}-N-(3-pyridylmethyl)carboxamide] gave an IC50 of 4.44 µM.
For `N#Cc1ccccc1-c1ccc(C(=O)NCc2cccnc2)c(NCCc2ccco2)n1` [{6-(2-cyanophenyl)-2-[(2-(2-furyl)ethyl)amino](3-pyridyl)}-N-(3-pyridylmethyl)carboxamide], the IC50 was 0.065 µM.
`N#Cc1ccccc1-c1ccc(C(=O)NCc2cccnc2)c(NCCc2ccccn2)n1` [{6-(2-cyanophenyl)-2-[(2-(2-pyridyl)ethyl)amino](3-pyridyl)}-N-(3-pyridylmethyl)carboxamide] gave an IC50 of 0.46 µM.
In the case of `N#Cc1ccccc1-c1ccc(C(=O)NCc2cccnc2)c(NCCc2cccs2)n1` [{6-(2-cyanophenyl)-2-[(2-(2-thienyl)ethyl)amino](3-pyridyl)}-N-(3-pyridylmethyl)carboxamide], the IC50 is reported as 0.029 µM.
`N#Cc1ccccc1-c1ccc(C(=O)NCc2cccnc2)c(NCCC2CCCO2)n1` (stereo not shown) [{6-(2-cyanophenyl)-2-[(2-oxolan-2-ylethyl)amino](3-pyridyl)}-N-(3-pyridylmethyl)carboxamide] gave an IC50 of 0.92 µM.
`O=C(NCc1cccnc1)c1ccc(-c2ccccc2F)nc1NCCc1ccccn1` [{6-(2-fluorophenyl)-2-[(2-(2-pyridyl)ethyl)amino](3-pyridyl)}-N-(3-pyridylmethyl)carboxamide] was tested, and the IC50 was 1.32 µM.
With `O=Cc1ccccc1-c1ccc(C(=O)NCc2cccnc2)c(NCCc2ccccn2)n1` [{6-(2-formylphenyl)-2-[(2-(2-pyridyl)ethyl)amino](3-pyridyl)}-N-(3-pyridylmethyl)carboxamide] the IC50 was 8.75 µM.
Compound `O=C(NCc1cccnc1)c1ccc(-c2ccccc2O)nc1NCCc1ccccn1` [{6-(2-hydroxyphenyl)-2-[(2-(2-pyridyl)ethyl)amino](3-pyridyl)}-N-(3-pyridylmethyl)carboxamide] has an IC50 of 2.17 µM.
Work on `COc1ccccc1-c1ccc(C(=O)NCc2cccnc2)c(NCCc2ccccn2)n1` [{6-(2-methoxyphenyl)-2-[(2-(2-pyridyl)ethyl)amino](3-pyridyl)}-N-(3-pyridylmethyl)carboxamide] yielded an IC50 of 17.9 µM.
`Cc1ccccc1-c1ccc(C(=O)NCc2cccnc2)c(NCCc2ccccn2)n1` [{6-(2-methylphenyl)-2-[(2-(2-pyridyl)ethyl)amino](3-pyridyl)}-N-(3-pyridylmethyl)carboxamide] gave an IC50 of 11 µM.
`O=C(NCc1cccnc1)c1ccc(-c2ccc(Cl)c(Cl)c2)nc1NCCc1ccccn1` [{6-(3,4-dichlorophenyl)-2-[(2-(2-pyridyl)ethyl)amino](3-pyridyl)}-N-(3-pyridylmethyl)carboxamide] gave an IC50 of 3.37 µM.
Work on `O=C(NCc1cccnc1)c1ccc(-c2ccc(F)c(F)c2)nc1NCCc1ccccn1` [{6-(3,4-difluorophenyl)-2-[(2-(2-pyridyl)ethyl)amino](3-pyridyl)}-N-(3-pyridylmethyl)carboxamide] yielded an IC50 of 1.21 µM.
Work on `Cc1ccc(-c2ccc(C(=O)NCc3cccnc3)c(NCCc3ccccn3)n2)cc1C` [{6-(3,4-dimethylphenyl)-2-[(2-(2-pyridyl)ethyl)amino](3-pyridyl)}-N-(3-pyridylmethyl)carboxamide] yielded an IC50 of 3.38 µM.
With `Cc1cc(C)cc(-c2ccc(C(=O)NCc3cccnc3)c(NCCc3ccccn3)n2)c1` [{6-(3,5-dimethylphenyl)-2-[(2-(2-pyridyl)ethyl)amino](3-pyridyl)}-N-(3-pyridylmethyl)carboxamide] the IC50 was 10.1 µM.
Work on `O=C(NCc1cccnc1)c1ccc(-c2cccc(Cl)c2)nc1NCCc1ccccn1` [{6-(3-chlorophenyl)-2-[(2-(2-pyridyl)ethyl)amino](3-pyridyl)}-N-(3-pyridylmethyl)carboxamide] yielded an IC50 of 1.97 µM.
Compound `N#Cc1cccc(-c2ccc(C(=O)NCc3cccnc3)c(NCCc3ccccn3)n2)c1` [{6-(3-cyanophenyl)-2-[(2-(2-pyridyl)ethyl)amino](3-pyridyl)}-N-(3-pyridylmethyl)carboxamide] has an IC50 of 2.99 µM.
Work on `O=C(NCc1cccnc1)c1ccc(-c2cccc(F)c2)nc1NCCc1ccccn1` [{6-(3-fluorophenyl)-2-[(2-(2-pyridyl)ethyl)amino](3-pyridyl)}-N-(3-pyridylmethyl)carboxamide] yielded an IC50 of 0.915 µM.
Compound `O=C(NCc1cccnc1)c1ccc(-c2cccc(O)c2)nc1NCCc1ccccn1` [{6-(3-hydroxyphenyl)-2-[(2-(2-pyridyl)ethyl)amino](3-pyridyl)}-N-(3-pyridylmethyl)carboxamide] has an IC50 of 0.79 µM.
`COc1cccc(-c2ccc(C(=O)NCc3cccnc3)c(NCCc3ccccn3)n2)c1` [{6-(3-methoxyphenyl)-2-[(2-(2-pyridyl)ethyl)amino](3-pyridyl)}-N-(3-pyridylmethyl)carboxamide] was tested, and the IC50 was 14.9 µM.
